# Tested on: MCH receptors
# Experiment: MCH receptor activity class (method not given)
# Details: MCH receptor; class by percent of control at 10^-7 M or IC50
row,Compound,class
1,"Cc1cc(C(=O)N[C@H]2CC[C@@H](Nc3cc(N(C)C)c4ccccc4n3)CC2)ccc1F [compound 81, N-(cis-4-{[4-(dimethylamino)quinolin-2-yl]amino}cyclohexyl)-4-fluoro-3-methylbenzamide]",1 (Class 1: The value of percent of control at 10^−7 M was less than 40% or the value of IC50 was less than 50 nM.)
2,CN(C)c1cc(N[C@H]2CC[C@@H](NC(=O)c3ccccc3SC(F)F)CC2)nc2ccccc12 [compound 82],3 (Class 3 The value of percent of control at 10^−7 M was more than 60% or the value of IC50 was more than 200 nM.)
3,CN(C)c1cc(N[C@H]2CC[C@@H](NC(=O)c3cc(Cl)sc3Cl)CC2)nc2ccccc12 [compound 83],2 (Class 2: The value of percent of control at 10^−7 M was from 40% to 60% or the value of IC′50 was from 50 nM to 200 nM.)
4,CCCSc1ncccc1C(=O)N[C@H]1CC[C@@H](Nc2cc(N(C)C)c3ccccc3n2)CC1 [compound 84],3 (Class 3 The value of percent of control at 10^−7 M was more than 60% or the value of IC50 was more than 200 nM.)
5,CN(C)c1cc(N[C@H]2CC[C@@H](NC(=O)c3cc(C(C)(C)C)nn3Cc3ccccc3)CC2)nc2ccccc12 [compound 85],3 (Class 3 The value of percent of control at 10^−7 M was more than 60% or the value of IC50 was more than 200 nM.)
6,CN(C)c1cc(N[C@H]2CC[C@@H](NC(=O)c3cc(C(C)(C)C)nn3C)CC2)nc2ccccc12 [compound 86],3 (Class 3 The value of percent of control at 10^−7 M was more than 60% or the value of IC50 was more than 200 nM.)
7,C/C(=C\c1ccccc1)C(=O)N[C@H]1CC[C@@H](Nc2cc(N(C)C)c3ccccc3n2)CC1 [compound 87],3 (Class 3 The value of percent of control at 10^−7 M was more than 60% or the value of IC50 was more than 200 nM.)
8,CN(C)c1cc(N[C@H]2CC[C@@H](NC(=O)c3cncc(Br)c3)CC2)nc2ccccc12 [compound 88],3 (Class 3 The value of percent of control at 10^−7 M was more than 60% or the value of IC50 was more than 200 nM.)
9,CN(C)c1cc(N[C@H]2CC[C@@H](NC(=O)Cc3cccc4ccccc34)CC2)nc2ccccc12 [compound 89],3 (Class 3 The value of percent of control at 10^−7 M was more than 60% or the value of IC50 was more than 200 nM.)
10,Cc1cc(C(=O)N[C@H]2CC[C@@H](Nc3cc(N(C)C)c4ccccc4n3)CC2)nn1C(C)(C)C [compound 90],3 (Class 3 The value of percent of control at 10^−7 M was more than 60% or the value of IC50 was more than 200 nM.)
11,CN(C)c1cc(N[C@H]2CC[C@@H](NC(=O)c3csc4ccccc34)CC2)nc2ccccc12 [compound 91],3 (Class 3 The value of percent of control at 10^−7 M was more than 60% or the value of IC50 was more than 200 nM.)
12,CN(C)c1cc(N[C@H]2CC[C@@H](NC(=O)c3ccccc3)CC2)nc2ccccc12 [compound 93],3 (Class 3 The value of percent of control at 10^−7 M was more than 60% or the value of IC50 was more than 200 nM.)
13,CN(C)c1cc(N[C@H]2CC[C@@H](NC(=O)c3cc4ccccc4s3)CC2)nc2ccccc12 [compound 94],3 (Class 3 The value of percent of control at 10^−7 M was more than 60% or the value of IC50 was more than 200 nM.)
14,CN(C)c1cc(N[C@H]2CC[C@@H](NC(=O)COCc3ccccc3)CC2)nc2ccccc12 [compound 95],3 (Class 3 The value of percent of control at 10^−7 M was more than 60% or the value of IC50 was more than 200 nM.)
15,CN(C)c1cc(N[C@H]2CC[C@@H](NC(=O)COc3ccc(Cl)cc3)CC2)nc2ccccc12 [compound 96],1 (Class 1: The value of percent of control at 10^−7 M was less than 40% or the value of IC50 was less than 50 nM.)
16,CN(C)c1cc(N[C@H]2CC[C@@H](NC(=O)C3CCCCC3)CC2)nc2ccccc12 [compound 97],3 (Class 3 The value of percent of control at 10^−7 M was more than 60% or the value of IC50 was more than 200 nM.)
17,Cc1onc(-c2ccccc2Cl)c1C(=O)N[C@H]1CC[C@@H](Nc2cc(N(C)C)c3ccccc3n2)CC1 [compound 98],1 (Class 1: The value of percent of control at 10^−7 M was less than 40% or the value of IC50 was less than 50 nM.)
18,CN(C)c1cc(N[C@H]2CC[C@@H](NC(=O)C3(c4ccc(Cl)cc4)CCCC3)CC2)nc2ccccc12 [compound 99],2 (Class 2: The value of percent of control at 10^−7 M was from 40% to 60% or the value of IC′50 was from 50 nM to 200 nM.)
19,"Cc1onc(-c2c(F)cccc2Cl)c1C(=O)N[C@H]1CC[C@@H](Nc2cc(N(C)C)c3ccccc3n2)CC1 [compound 100, 3-(2-chloro-6-fluorophenyl)-N-(cis-4-{[4-(dimethylamino)quinolin-2-yl]amino}cyclohexyl)-5-methylisoxazole-4-carboxamide]",1 (Class 1: The value of percent of control at 10^−7 M was less than 40% or the value of IC50 was less than 50 nM.)

row,Compound,class
1,CC(C)S(=O)(=O)c1csc(C(=O)N[C@H]2CC[C@@H](Nc3cc(N(C)C)c4ccccc4n3)CC2)c1Cl [compound 101],3 (Class 3 The value of percent of control at 10^−7 M was more than 60% or the value of IC50 was more than 200 nM.)
2,CN(C)c1cc(N[C@H]2CC[C@@H](NC(=O)c3ccc([N+](=O)[O-])cc3Cl)CC2)nc2ccccc12 [compound 102],3 (Class 3 The value of percent of control at 10^−7 M was more than 60% or the value of IC50 was more than 200 nM.)
3,Cc1cc(C(=O)N[C@H]2CC[C@@H](Nc3cc(N(C)C)c4ccccc4n3)CC2)n(C)n1 [compound 103],3 (Class 3 The value of percent of control at 10^−7 M was more than 60% or the value of IC50 was more than 200 nM.)
4,COc1ccc(C(=O)N[C@H]2CC[C@@H](Nc3cc(N(C)C)c4ccccc4n3)CC2)cc1OC [compound 104],3 (Class 3 The value of percent of control at 10^−7 M was more than 60% or the value of IC50 was more than 200 nM.)
5,"CN(C)c1cc(N[C@H]2CC[C@@H](NC(=O)c3cccc(F)c3)CC2)nc2ccccc12 [compound 105, N-(cis-4-{[4-(dimethylamino)quinolin-2-yl]amino}cyclohexyl)-3-fluorobenzamide]",2 (Class 2: The value of percent of control at 10^−7 M was from 40% to 60% or the value of IC′50 was from 50 nM to 200 nM.)
6,"CN(C)c1cc(N[C@H]2CC[C@@H](NC(=O)c3ccc(F)c(C(F)(F)F)c3)CC2)nc2ccccc12 [compound 106, N-(cis-4-{[4-(dimethylamino)quinolin-2-yl]amino}cyclohexyl)-4-fluoro-3-(trifluoromethyl)benzamide]",1 (Class 1: The value of percent of control at 10^−7 M was less than 40% or the value of IC50 was less than 50 nM.)
7,"Cc1nn(-c2ccccc2)nc1C(=O)N[C@H]1CC[C@@H](Nc2cc(N(C)C)c3ccccc3n2)CC1 [compound 107, N-(cis-4-{[4-(dimethylamino)quinolin-2-yl]amino}cyclohexyl)-5-methyl-2-phenyl-2H-1,2,3-triazole-4-carboxamide]",2 (Class 2: The value of percent of control at 10^−7 M was from 40% to 60% or the value of IC′50 was from 50 nM to 200 nM.)
8,"COc1ccc(Oc2ccc([N+](=O)[O-])cc2C(=O)N[C@H]2CC[C@@H](Nc3cc(N(C)C)c4ccccc4n3)CC2)cc1 [compound 108, N-(cis-4-{[4-(dimethylamino)quinolin-2-yl]amino}cyclohexyl)-2-(4-methoxyphenoxy)-5-nitrobenzamide]",1 (Class 1: The value of percent of control at 10^−7 M was less than 40% or the value of IC50 was less than 50 nM.)
9,CN(C)c1cc(N[C@H]2CC[C@@H](NC(=O)c3cccc4ccccc34)CC2)nc2ccccc12 [compound 109],3 (Class 3 The value of percent of control at 10^−7 M was more than 60% or the value of IC50 was more than 200 nM.)
10,CN(C)c1cc(N[C@H]2CC[C@@H](NC(=O)c3ccc4ccccc4c3)CC2)nc2ccccc12 [compound 110],3 (Class 3 The value of percent of control at 10^−7 M was more than 60% or the value of IC50 was more than 200 nM.)
11,"CN(C)c1cc(N[C@H]2CC[C@@H](NC(=O)c3ccc([N+](=O)[O-])o3)CC2)nc2ccccc12 [compound 111, N-(cis-4-{[4-(dimethylamino)quinolin-2-yl]amino}cyclohexyl)-5-nitro-2-furamide]",1 (Class 1: The value of percent of control at 10^−7 M was less than 40% or the value of IC50 was less than 50 nM.)
12,"CN(C)c1cc(N[C@H]2CC[C@@H](NC(=O)COc3ccccc3)CC2)nc2ccccc12 [compound 112, N-(cis-4-{[4-(dimethylamino)quinolin-2-yl]amino}cyclohexyl)-2-phenoxyacetamide]",1 (Class 1: The value of percent of control at 10^−7 M was less than 40% or the value of IC50 was less than 50 nM.)
13,CN(C)c1cc(N[C@H]2CC[C@@H](NC(=O)COc3ccccc3[N+](=O)[O-])CC2)nc2ccccc12 [compound 113],3 (Class 3 The value of percent of control at 10^−7 M was more than 60% or the value of IC50 was more than 200 nM.)
14,"CN(C)c1cc(N[C@H]2CC[C@@H](NC(=O)c3cnc4ccccc4n3)CC2)nc2ccccc12 [compound 114, N-(cis-4-{[4-(dimethylamino)quinolin-2-yl]amino}cyclohexyl)quinoxaline-2-carboxamide]",2 (Class 2: The value of percent of control at 10^−7 M was from 40% to 60% or the value of IC′50 was from 50 nM to 200 nM.)
15,COc1cc(C(=O)N[C@H]2CC[C@@H](Nc3cc(N(C)C)c4ccccc4n3)CC2)cc(OC)c1OC [compound 115],3 (Class 3 The value of percent of control at 10^−7 M was more than 60% or the value of IC50 was more than 200 nM.)
16,CN(C)c1cc(N[C@H]2CC[C@@H](NC(=O)c3cccc(C(F)(F)F)c3)CC2)nc2ccccc12 [compound 116],3 (Class 3 The value of percent of control at 10^−7 M was more than 60% or the value of IC50 was more than 200 nM.)
17,CN(C)c1cc(N[C@H]2CC[C@@H](NC(=O)c3ccc(C(F)(F)F)cc3)CC2)nc2ccccc12 [compound 117],3 (Class 3 The value of percent of control at 10^−7 M was more than 60% or the value of IC50 was more than 200 nM.)
18,CN(C)c1cc(N[C@H]2CC[C@@H](NC(=O)c3ccccc3OC(F)(F)F)CC2)nc2ccccc12 [compound 118],3 (Class 3 The value of percent of control at 10^−7 M was more than 60% or the value of IC50 was more than 200 nM.)

# — patent US20050197350A1, “Novel quinoline, tetrahydroquinazoline, and pyrimidine derivatives and methods of treatment related to the use thereof” (TAISHO PHARMACEUTICAL CO., LTD., priority 2003, published 2005)
